From ChEMBL document CHEMBL4325845, “Tau Tubulin Kinase 1 (TTBK1), a new player in the fight against neurodegenerative diseases” (Eur J Med Chem, 2019)

Assays:
Tau-tubulin kinase 1 [1] = target: T1, Tau-tubulin kinase 1 (Homo sapiens, UniProt Q5TCY1); assay: Binding affinity to phosphorylated TTBK1 (unknown origin) by SPR analysis
[2] = Inhibition of FTK (unknown origin); parameters: species or system Homo sapiens
Tau-tubulin kinase 1 [3] = target: T1, Tau-tubulin kinase 1; assay: Binding affinity to phosphorylated TTBK1 (unknown origin) assessed as association rate constant by SPR analysis

T1 sequence (Q5TCY1 whole entry): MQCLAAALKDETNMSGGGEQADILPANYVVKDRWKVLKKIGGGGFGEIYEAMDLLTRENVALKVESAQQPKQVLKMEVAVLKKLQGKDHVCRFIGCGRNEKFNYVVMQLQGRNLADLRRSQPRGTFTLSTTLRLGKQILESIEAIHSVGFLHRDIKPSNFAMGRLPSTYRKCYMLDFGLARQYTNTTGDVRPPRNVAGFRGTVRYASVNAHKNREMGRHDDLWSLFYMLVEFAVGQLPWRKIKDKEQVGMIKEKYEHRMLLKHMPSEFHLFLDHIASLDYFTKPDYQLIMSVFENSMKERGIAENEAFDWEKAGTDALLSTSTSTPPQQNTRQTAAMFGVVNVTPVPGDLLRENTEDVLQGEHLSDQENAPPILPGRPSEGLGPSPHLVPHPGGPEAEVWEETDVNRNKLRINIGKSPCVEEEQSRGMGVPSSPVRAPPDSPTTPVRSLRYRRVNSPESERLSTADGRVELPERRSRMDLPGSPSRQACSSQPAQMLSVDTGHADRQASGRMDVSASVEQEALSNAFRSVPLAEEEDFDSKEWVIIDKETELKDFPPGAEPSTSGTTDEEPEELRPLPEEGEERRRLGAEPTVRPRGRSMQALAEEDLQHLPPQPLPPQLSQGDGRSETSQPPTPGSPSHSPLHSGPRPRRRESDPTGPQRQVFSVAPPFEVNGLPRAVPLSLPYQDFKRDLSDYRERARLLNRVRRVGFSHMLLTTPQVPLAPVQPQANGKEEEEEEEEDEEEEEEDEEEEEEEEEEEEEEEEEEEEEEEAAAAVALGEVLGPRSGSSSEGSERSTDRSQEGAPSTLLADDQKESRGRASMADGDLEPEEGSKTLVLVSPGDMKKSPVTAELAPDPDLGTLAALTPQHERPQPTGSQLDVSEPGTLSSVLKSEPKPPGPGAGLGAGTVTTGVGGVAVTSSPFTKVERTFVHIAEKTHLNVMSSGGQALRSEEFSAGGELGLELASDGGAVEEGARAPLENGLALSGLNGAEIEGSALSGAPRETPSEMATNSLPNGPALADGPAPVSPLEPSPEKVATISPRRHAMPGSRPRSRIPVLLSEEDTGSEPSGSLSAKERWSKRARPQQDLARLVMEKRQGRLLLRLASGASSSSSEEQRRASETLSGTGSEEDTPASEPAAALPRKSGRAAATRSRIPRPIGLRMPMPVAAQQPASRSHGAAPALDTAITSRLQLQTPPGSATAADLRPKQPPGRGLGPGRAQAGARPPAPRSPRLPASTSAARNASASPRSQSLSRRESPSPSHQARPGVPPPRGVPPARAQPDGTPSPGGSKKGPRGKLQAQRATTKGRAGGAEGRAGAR

Row | Kd (Tau-tubulin kinase 1 [1]) | IC50 [2] | K (Tau-tubulin kinase 1 [3]) | Compound
1 | 4.1 µM |  |  | COC(=O)c1cc(Nc2ncnc3[nH]ccc23)ccc1Br
2 |  | 11 µM | 6.8 ×10⁶ /s | COc1cc2ncnc(Nc3cccc(O)c3)c2cc1OC
